In patent publication US11096987B2, “Mutant peptides and methods of treating subjects using the same” (BIOINCEPT, LLC, priority 2015, dated 2021):
Read-outs that look alike come from different tables or passages of the source.

How the values were obtained:
Jurkat T-cells = assay: K+ flux inhibition in Jurkat T-cells; type: cell-based; settings: compared with control
Source text: (§1) (FIG. 2). […] (FIG. 3). […] (FIG. 4). […] Thus dependent on the target Kv1.3 or IDE the mutated PIF-1 can have a target-specific effect which can also translate to diverse biological activity.

[1] = target: insulin degrading enzyme (IDE) (Homo sapiens, UniProt P14735); assay: Fluorescent based thermal shift assay; type: binding; settings: ligands 10 uM, receptor 1 uM
Protocol: Concentrations of the ligands 10 uM and 1 uM of the receptor, buffer consisting of 10 mM HEPES-HCL, 150 mM […], and protein folding sensitive dye SyO 1:1000.
as §1

[2] = system: CD11b (macrophage) monocytes; assay: FITC-PIF assay, binding to CD11b monocytes; settings: for CD11b %: FITC-PIF binding
CD19 (B cell) monocytes = assay: FITC-PIF assay, binding to CD19 monocytes
let-7 = let-7 microRNA levels in microglia and neural cell lines; type: cell-based
Source text: as §1
This direct effect on target cells was confirmed by targeting microglia and neuron cell line (Neu) in vitro (FIGS. 5C, D). […] Phosphorylated CREB in turn facilitates expression of (Gap43, Bdnf and Bcl2) (FIG. 5F) that play important role regulating neuronal growth, survival, which is dependent on TLR4 signaling (FIG. 5G). PKA/PKC was reported to impart TBI (Lucke-Wold, Logsdon et al. 2014; Zohar, Lavy et al. 2011; Titus 2013). […] For currently used neuroprotective drugs ability to reach the brain in both intact and damaged settings is difficult. Therefore frequently drugs in order to pass the BBB they have to be very small, or have to be added to agents that would favor passage.

Row | Sequence | effect on K+ flux (Jurkat T-cells) | Tm / thermal shift compared to PIF(wt) ([1]; listed as PIF(mutant-1)) | Tm / thermal shift compared to PIF(wt) ([1]; listed as mut-1) | binding affinity to CD11b monocytes compared to natural PIF [2] | CD11b % [2] [%] | CD19 % (CD19 (B cell) monocytes) [%] | binding affinity to CD19 monocytes compared to natural PIF (CD19 (B cell) monocytes) | CD19 % (CD19 (B cell) monocytes; FITC-PIF binding) [%] | Tm / thermal shift compared to PIF(wt) ([1]; listed as PIF(mutant-3)) | Tm / thermal shift compared to PIF(wt) ([1]; listed as mut-3) | effect on let-7 microRNA (let-7)
1 | MVRIKEGSANKPSDD [SEQ ID NO: 7, PIF mutant] | no effect | decreased Tm | reduced thermal shift |  |  |  |  |  |  |  | 
2 | AVRIKPGSANKPSDD [SEQ ID NO: 10] |  |  |  | higher binding affinity | 33.54 | 5.90 | higher binding affinity |  |  |  | 
3 | MVRGKPGSANKPSDD [SEQ ID NO: 8, PIF mutant] | no effect |  |  | higher binding affinity | 35.48 |  | higher binding affinity | 5.60 | increased Tm | activity was decreased | lack of effect
